From ChEMBL document CHEMBL3875160, “Structure-activity relationship study of peptidomimetic aldehydes as enterovirus 71 3C protease inhibitors” (Eur J Med Chem, 2016)

Columns and labels:
[1] = Cytotoxicity against human rhabdomyosarcoma cells assessed as decrease in cell viability after 24 hrs by WST-1 assay; format: toxicity, cell-based
[2] = Inhibition of EV71 protease 3C expressed in Escherichia coli BL21 using substrate NMA-IEALFQGPPK(DNP)FR preincubated for 30 mins followed by substrate addition measured after 2 hrs; design: species or system Enterovirus A71
Enterovirus A71 = assay: Antiviral activity against EV71 FY pseudotype virus infected in human rhabdomyosarcoma cells after 24 hrs by bright-glo luciferase reporter gene assay; format: functional; conditions: Enterovirus A

Row | SMILES | CC50 at 24 h [1] [nM] | IC50 [2] [nM] | Ki [2] [nM] | EC50 (Enterovirus A71) [nM]
1 | O=C[C@H](C[C@@H]1CCCNC1=O)NC(=O)[C@H](Cc1ccccc1)NC(=O)/C=C/c1ccccc1 | > 100000 | 540 | 370 | 
2 | Cc1cc(C(=O)N[C@@H](Cc2ccc(F)cc2)C(=O)N[C@H](C=O)C[C@@H]2CCCNC2=O)no1 | > 100000 | 100 | 70 | 
3 | O=C[C@H](C[C@@H]1CCCNC1=O)NC(=O)[C@H](Cc1ccc(F)cc1)NC(=O)/C=C/c1ccc(F)cc1 | > 100000 | 470 | 320 | 260
4 | O=C[C@H](C[C@@H]1CCCNC1=O)NC(=O)[C@H](Cc1ccc(F)cc1)NC(=O)/C=C/c1ccccc1 | > 100000 | 440 | 300 | 200
5 | O=C[C@H](C[C@@H]1CCCNC1=O)NC(=O)[C@H](Cc1ccccc1)NC(=O)Cc1ccccc1 | > 100000 | 700 | 480 | 540
6 | COc1cc(/C=C/C(=O)N[C@@H](Cc2ccccc2)C(=O)N[C@H](C=O)C[C@@H]2CCCNC2=O)cc(OC)c1OC | > 100000 | 7270 | 4970 | 6100
7 | CCCC(=O)N[C@@H](Cc1ccccc1)C(=O)N[C@H](C=O)C[C@@H]1CCCNC1=O | > 100000 | 7680 | 5250 | 4060
8 | O=C[C@H](C[C@@H]1CCCNC1=O)NC(=O)[C@H](CC1CCCCC1)NC(=O)/C=C/c1ccccc1 | > 100000 | 1190 | 810 | 1040
9 | O=C[C@H](C[C@@H]1CCCNC1=O)NC(=O)[C@H](Cc1ccccc1)NC(=O)c1ccco1 | > 100000 | 1100 | 750 | 850
10 | O=C[C@H](C[C@@H]1CCCNC1=O)NC(=O)[C@H](Cc1ccccc1)NC(=O)c1ccc(-c2ccccc2)cc1 | > 100000 | 1930 | 1320 | 910
11 | O=C[C@H](C[C@@H]1CCCNC1=O)NC(=O)[C@H](Cc1ccccc1)NC(=O)/C=C/c1ccc(F)cc1 | > 100000 | 590 | 400 | 320
12 | CC(C)[C@H](NC(=O)/C=C/c1ccccc1)C(=O)N[C@H](C=O)C[C@@H]1CCCNC1=O | > 100000 | 5680 | 3880 | 16700
13 | O=C[C@H](C[C@@H]1CCCNC1=O)NC(=O)[C@H](Cc1ccccc1)NC(=O)c1ccncc1 | > 100000 | 1420 | 970 | 8600
14 | COc1ccc(/C=C/C(=O)N[C@@H](Cc2ccccc2)C(=O)N[C@H](C=O)C[C@@H]2CCCNC2=O)cc1OC | > 100000 | 1580 | 1080 | 1380
15 | CCCCCC(=O)N[C@@H](Cc1ccccc1)C(=O)N[C@H](C=O)C[C@@H]1CCCNC1=O | > 100000 | 13600 | 9270 | 6450
16 | COc1ccc(/C=C/C(=O)N[C@@H](Cc2ccc(F)cc2)C(=O)N[C@H](C=O)C[C@@H]2CCCNC2=O)cc1 | > 100000 | 410 | 280 | 180
17 | O=C[C@H](C[C@@H]1CCCNC1=O)NC(=O)[C@H](Cc1ccccc1)NC(=O)c1cccs1 | > 100000 | 420 | 290 | 210
18 | O=C[C@H](C[C@@H]1CCCNC1=O)NC(=O)[C@H](Cc1ccccc1)NC(=O)CCc1ccccc1 | > 100000 | 750 | 510 | 570
19 | O=C[C@H](C[C@@H]1CCCNC1=O)NC(=O)[C@H](Cc1ccc(F)cc1)NC(=O)c1cccs1 | > 100000 | 290 | 200 | 160
20 | COc1ccc(/C=C/C(=O)N[C@@H](Cc2ccccc2)C(=O)N[C@H](C=O)C[C@@H]2CCCNC2=O)cc1 | > 100000 | 490 | 330 | 230
21 | CC(C)C[C@H](NC(=O)/C=C/c1ccccc1)C(=O)N[C@H](C=O)C[C@@H]1CCCNC1=O | > 100000 | 2780 | 1900 | 2360
22 | O=C[C@H](C[C@@H]1CCCNC1=O)NC(=O)[C@H](Cc1ccccc1)NC(=O)c1cccnc1 | > 100000 | 440 | 300 | 3550
23 | Cc1cc(C(=O)N[C@@H](Cc2ccccc2)C(=O)N[C@H](C=O)C[C@@H]2CCCNC2=O)no1 | > 100000 | 220 | 220 | 180
24 | O=C[C@H](C[C@@H]1CCCNC1=O)NC(=O)[C@H](Cc1ccccc1)NC(=O)c1ccccc1 | > 100000 | 550 | 380 | 380
